Measurements: the NIST ThermoML archive (doi:10.1021/acs.jced.5b01023)
Numbers after ± are expanded uncertainties.

Test: xn = mol fraction of the nth substance listed
Conditions: for surface tension liquid-gas: Wilhelmy plates; for viscosity / mass density: 101 kPa, Liquid; for viscosity: Capillary tube (Ostwald / Ubbelohde) method; for mass density: Vibrating tube method

## CC(=O)[O-].CCn1cc[n+](C)c1 [1-ethyl-3-methylimidazolium acetate] + CCCO
288.15 K, x1 = 0.1017
  surface tension liquid-gas: 25.8 ± 0.6 mN/m
  viscosity: 4.866 ± 0.057 mPa·s
  mass density: 869.4 ± 0.16 kg/m3
288.15 K, x1 = 0.2004
  surface tension liquid-gas: 27.4 ± 0.6 mN/m
  viscosity: 7.99 ± 0.093 mPa·s
  mass density: 915.48 ± 0.16 kg/m3
288.15 K, x1 = 0.3001
  surface tension liquid-gas: 29.7 ± 0.6 mN/m
  viscosity: 13.36 ± 0.16 mPa·s
  mass density: 953.82 ± 0.18 kg/m3
288.15 K, x1 = 0.3998
  surface tension liquid-gas: 31.7 ± 0.6 mN/m
  viscosity: 22.26 ± 0.27 mPa·s
  mass density: 986.05 ± 0.24 kg/m3
288.15 K, x1 = 0.4997
  surface tension liquid-gas: 33.7 ± 0.6 mN/m
  viscosity: 36.38 ± 0.46 mPa·s
  mass density: 1013.52 ± 0.34 kg/m3
288.15 K, x1 = 0.5996
  surface tension liquid-gas: 35.6 ± 0.6 mN/m
  viscosity: 57.47 ± 0.73 mPa·s
  mass density: 1037.16 ± 0.48 kg/m3
288.15 K, x1 = 0.6998
  surface tension liquid-gas: 37.7 ± 0.7 mN/m
  viscosity: 90.15 ± 1.4 mPa·s
  mass density: 1057.65 ± 0.66 kg/m3
288.15 K, x1 = 0.8002
  surface tension liquid-gas: 40.2 ± 0.7 mN/m
  viscosity: 135 ± 2.8 mPa·s
  mass density: 1075.6 ± 0.86 kg/m3
288.15 K, x1 = 0.8991
  surface tension liquid-gas: 43.2 ± 0.7 mN/m
  viscosity: 196.8 ± 5.1 mPa·s
  mass density: 1090.97 ± 1.1 kg/m3
288.15 K, x1 = 1
  surface tension liquid-gas: 47.7 ± 0.8 mN/m
  viscosity: 283.8 ± 8.9 mPa·s
  mass density: 1105.2 ± 1.4 kg/m3
298.15 K, x1 = 0.1017
  surface tension liquid-gas: 25.2 ± 0.6 mN/m
  viscosity: 3.822 ± 0.044 mPa·s
  mass density: 862.03 ± 0.17 kg/m3
298.15 K, x1 = 0.2004
  surface tension liquid-gas: 26.5 ± 0.6 mN/m
  viscosity: 6.163 ± 0.072 mPa·s
  mass density: 908.4 ± 0.16 kg/m3
298.15 K, x1 = 0.3001
  surface tension liquid-gas: 29.2 ± 0.6 mN/m
  viscosity: 9.963 ± 0.12 mPa·s
  mass density: 946.94 ± 0.18 kg/m3
298.15 K, x1 = 0.3998
  surface tension liquid-gas: 31 ± 0.6 mN/m
  viscosity: 15.81 ± 0.19 mPa·s
  mass density: 979.34 ± 0.24 kg/m3
298.15 K, x1 = 0.4997
  surface tension liquid-gas: 33.1 ± 0.6 mN/m
  viscosity: 24.44 ± 0.31 mPa·s
  mass density: 1006.95 ± 0.33 kg/m3
298.15 K, x1 = 0.5996
  surface tension liquid-gas: 34.7 ± 0.6 mN/m
  viscosity: 36.48 ± 0.48 mPa·s
  mass density: 1030.7 ± 0.48 kg/m3
298.15 K, x1 = 0.6998
  surface tension liquid-gas: 37.2 ± 0.7 mN/m
  viscosity: 53.65 ± 0.72 mPa·s
  mass density: 1051.29 ± 0.65 kg/m3
298.15 K, x1 = 0.8002
  surface tension liquid-gas: 39.7 ± 0.7 mN/m
  viscosity: 75.63 ± 1.2 mPa·s
  mass density: 1069.33 ± 0.85 kg/m3
298.15 K, x1 = 0.8991
  surface tension liquid-gas: 42.7 ± 0.7 mN/m
  viscosity: 103.9 ± 2 mPa·s
  mass density: 1084.89 ± 1.1 kg/m3
298.15 K, x1 = 1
  surface tension liquid-gas: 47.1 ± 0.8 mN/m
  viscosity: 139 ± 3.1 mPa·s
  mass density: 1099.03 ± 1.4 kg/m3
308.15 K, x1 = 0.1017
  surface tension liquid-gas: 24.7 ± 0.6 mN/m
  viscosity: 3.038 ± 0.035 mPa·s
  mass density: 854.63 ± 0.17 kg/m3
308.15 K, x1 = 0.2004
  surface tension liquid-gas: 25.8 ± 0.6 mN/m
  viscosity: 4.878 ± 0.057 mPa·s
  mass density: 901.33 ± 0.16 kg/m3
308.15 K, x1 = 0.3001
  surface tension liquid-gas: 28.7 ± 0.6 mN/m
  viscosity: 7.657 ± 0.09 mPa·s
  mass density: 940.1 ± 0.19 kg/m3
308.15 K, x1 = 0.3998
  surface tension liquid-gas: 30.7 ± 0.6 mN/m
  viscosity: 11.7 ± 0.14 mPa·s
  mass density: 972.66 ± 0.24 kg/m3
308.15 K, x1 = 0.4997
  surface tension liquid-gas: 32.7 ± 0.6 mN/m
  viscosity: 17.3 ± 0.22 mPa·s
  mass density: 1000.41 ± 0.33 kg/m3
308.15 K, x1 = 0.5996
  surface tension liquid-gas: 34.2 ± 0.6 mN/m
  viscosity: 24.75 ± 0.32 mPa·s
  mass density: 1024.28 ± 0.47 kg/m3
308.15 K, x1 = 0.6998
  surface tension liquid-gas: 36.6 ± 0.7 mN/m
  viscosity: 34.59 ± 0.47 mPa·s
  mass density: 1044.96 ± 0.64 kg/m3
308.15 K, x1 = 0.8002
  surface tension liquid-gas: 39.2 ± 0.7 mN/m
  viscosity: 46.49 ± 0.66 mPa·s
  mass density: 1063.09 ± 0.84 kg/m3
308.15 K, x1 = 0.8991
  surface tension liquid-gas: 42.2 ± 0.7 mN/m
  viscosity: 60.98 ± 0.91 mPa·s
  mass density: 1078.75 ± 1.1 kg/m3
308.15 K, x1 = 1
  surface tension liquid-gas: 46.6 ± 0.8 mN/m
  viscosity: 77.32 ± 1.3 mPa·s
  mass density: 1092.93 ± 1.3 kg/m3
318.15 K, x1 = 0.1017
  surface tension liquid-gas: 23.9 ± 0.6 mN/m
  viscosity: 2.461 ± 0.029 mPa·s
  mass density: 847.19 ± 0.17 kg/m3
318.15 K, x1 = 0.2004
  surface tension liquid-gas: 25.3 ± 0.6 mN/m
  viscosity: 3.952 ± 0.046 mPa·s
  mass density: 894.27 ± 0.16 kg/m3
318.15 K, x1 = 0.3001
  surface tension liquid-gas: 28.5 ± 0.6 mN/m
  viscosity: 6.043 ± 0.071 mPa·s
  mass density: 933.29 ± 0.19 kg/m3
318.15 K, x1 = 0.3998
  surface tension liquid-gas: 30.2 ± 0.6 mN/m
  viscosity: 8.961 ± 0.11 mPa·s
  mass density: 966.03 ± 0.24 kg/m3
318.15 K, x1 = 0.4997
  surface tension liquid-gas: 32.2 ± 0.6 mN/m
  viscosity: 12.78 ± 0.16 mPa·s
  mass density: 993.92 ± 0.33 kg/m3
318.15 K, x1 = 0.5996
  surface tension liquid-gas: 33.3 ± 0.6 mN/m
  viscosity: 17.58 ± 0.23 mPa·s
  mass density: 1017.9 ± 0.46 kg/m3
318.15 K, x1 = 0.6998
  surface tension liquid-gas: 36.1 ± 0.7 mN/m
  viscosity: 23.68 ± 0.32 mPa·s
  mass density: 1038.68 ± 0.63 kg/m3
318.15 K, x1 = 0.8002
  surface tension liquid-gas: 38.8 ± 0.7 mN/m
  viscosity: 30.86 ± 0.43 mPa·s
  mass density: 1056.89 ± 0.83 kg/m3
318.15 K, x1 = 0.8991
  surface tension liquid-gas: 41.8 ± 0.7 mN/m
  viscosity: 37.98 ± 0.56 mPa·s
  mass density: 1072.62 ± 1.1 kg/m3
318.15 K, x1 = 1
  surface tension liquid-gas: 46.1 ± 0.8 mN/m
  viscosity: 47.37 ± 0.73 mPa·s
  mass density: 1086.86 ± 1.3 kg/m3
328.15 K, x1 = 0.1017
  surface tension liquid-gas: 23 ± 0.6 mN/m
  viscosity: 2.018 ± 0.023 mPa·s
  mass density: 839.68 ± 0.18 kg/m3
328.15 K, x1 = 0.2004
  surface tension liquid-gas: 25 ± 0.6 mN/m
  viscosity: 3.268 ± 0.038 mPa·s
  mass density: 887.21 ± 0.17 kg/m3
328.15 K, x1 = 0.3001
  surface tension liquid-gas: 27.9 ± 0.6 mN/m
  viscosity: 4.878 ± 0.058 mPa·s
  mass density: 926.51 ± 0.19 kg/m3
328.15 K, x1 = 0.3998
  surface tension liquid-gas: 30 ± 0.6 mN/m
  viscosity: 7.05 ± 0.085 mPa·s
  mass density: 959.44 ± 0.24 kg/m3
328.15 K, x1 = 0.4997
  surface tension liquid-gas: 31.7 ± 0.6 mN/m
  viscosity: 9.766 ± 0.12 mPa·s
  mass density: 987.48 ± 0.32 kg/m3
328.15 K, x1 = 0.5996
  surface tension liquid-gas: 33.1 ± 0.6 mN/m
  viscosity: 13.01 ± 0.17 mPa·s
  mass density: 1011.58 ± 0.45 kg/m3
328.15 K, x1 = 0.6998
  surface tension liquid-gas: 35.8 ± 0.7 mN/m
  viscosity: 17.05 ± 0.23 mPa·s
  mass density: 1032.45 ± 0.62 kg/m3
328.15 K, x1 = 0.8002
  surface tension liquid-gas: 38.1 ± 0.7 mN/m
  viscosity: 21.36 ± 0.3 mPa·s
  mass density: 1050.74 ± 0.82 kg/m3
328.15 K, x1 = 0.8991
  surface tension liquid-gas: 41.4 ± 0.7 mN/m
  viscosity: 25.84 ± 0.38 mPa·s
  mass density: 1066.53 ± 1 kg/m3
328.15 K, x1 = 1
  surface tension liquid-gas: 45.9 ± 0.8 mN/m
  viscosity: 31.29 ± 0.48 mPa·s
  mass density: 1080.82 ± 1.3 kg/m3
338.15 K, x1 = 0.1017
  surface tension liquid-gas: 22.3 ± 0.6 mN/m
  viscosity: 1.68 ± 0.02 mPa·s
  mass density: 832.08 ± 0.18 kg/m3
338.15 K, x1 = 0.2004
  surface tension liquid-gas: 24 ± 0.6 mN/m
  viscosity: 2.686 ± 0.031 mPa·s
  mass density: 880.13 ± 0.17 kg/m3
338.15 K, x1 = 0.3001
  surface tension liquid-gas: 27.3 ± 0.6 mN/m
  viscosity: 3.946 ± 0.047 mPa·s
  mass density: 919.75 ± 0.19 kg/m3
338.15 K, x1 = 0.3998
  surface tension liquid-gas: 29.5 ± 0.6 mN/m
  viscosity: 5.672 ± 0.069 mPa·s
  mass density: 952.89 ± 0.24 kg/m3
338.15 K, x1 = 0.4997
  surface tension liquid-gas: 31.3 ± 0.6 mN/m
  viscosity: 7.675 ± 0.095 mPa·s
  mass density: 981.08 ± 0.32 kg/m3
338.15 K, x1 = 0.5996
  surface tension liquid-gas: 32.6 ± 0.6 mN/m
  viscosity: 9.978 ± 0.13 mPa·s
  mass density: 1005.3 ± 0.44 kg/m3
338.15 K, x1 = 0.6998
  surface tension liquid-gas: 35.5 ± 0.7 mN/m
  viscosity: 12.68 ± 0.17 mPa·s
  mass density: 1026.26 ± 0.61 kg/m3
338.15 K, x1 = 0.8002
  surface tension liquid-gas: 37.9 ± 0.7 mN/m
  viscosity: 15.57 ± 0.22 mPa·s
  mass density: 1044.63 ± 0.8 kg/m3
338.15 K, x1 = 0.8991
  surface tension liquid-gas: 41.2 ± 0.7 mN/m
  viscosity: 18.49 ± 0.27 mPa·s
  mass density: 1060.48 ± 1 kg/m3
338.15 K, x1 = 1
  surface tension liquid-gas: 45.4 ± 0.8 mN/m
  viscosity: 21.85 ± 0.33 mPa·s
  mass density: 1074.83 ± 1.3 kg/m3
348.15 K, x1 = 0.1017
  surface tension liquid-gas: 21.5 ± 0.6 mN/m
  viscosity: 1.413 ± 0.016 mPa·s
  mass density: 824.34 ± 0.18 kg/m3
348.15 K, x1 = 0.2004
  surface tension liquid-gas: 23.6 ± 0.6 mN/m
  viscosity: 2.26 ± 0.026 mPa·s
  mass density: 873.02 ± 0.17 kg/m3
348.15 K, x1 = 0.3001
  surface tension liquid-gas: 27.1 ± 0.6 mN/m
  viscosity: 3.292 ± 0.039 mPa·s
  mass density: 912.99 ± 0.19 kg/m3
348.15 K, x1 = 0.3998
  surface tension liquid-gas: 29.3 ± 0.6 mN/m
  viscosity: 4.651 ± 0.057 mPa·s
  mass density: 946.36 ± 0.24 kg/m3
348.15 K, x1 = 0.4997
  surface tension liquid-gas: 30.8 ± 0.6 mN/m
  viscosity: 6.175 ± 0.077 mPa·s
  mass density: 974.71 ± 0.32 kg/m3
348.15 K, x1 = 0.5996
  surface tension liquid-gas: 31.8 ± 0.6 mN/m
  viscosity: 7.866 ± 0.1 mPa·s
  mass density: 999.06 ± 0.44 kg/m3
348.15 K, x1 = 0.6998
  surface tension liquid-gas: 34.5 ± 0.7 mN/m
  viscosity: 9.81 ± 0.13 mPa·s
  mass density: 1020.12 ± 0.6 kg/m3
348.15 K, x1 = 0.8002
  surface tension liquid-gas: 37.6 ± 0.7 mN/m
  viscosity: 11.81 ± 0.16 mPa·s
  mass density: 1038.57 ± 0.79 kg/m3
348.15 K, x1 = 0.8991
  surface tension liquid-gas: 41 ± 0.7 mN/m
  viscosity: 13.78 ± 0.2 mPa·s
  mass density: 1054.49 ± 1 kg/m3
348.15 K, x1 = 1
  surface tension liquid-gas: 45.1 ± 0.8 mN/m
  viscosity: 16.01 ± 0.24 mPa·s
  mass density: 1068.88 ± 1.3 kg/m3
